Data reported in publication PMC5666312, “Profiling MHC II immunopeptidome of blood‐stage malaria reveals that cDC1 control the functionality of parasite‐specific CD4 T cells” (EMBO Molecular Medicine, 2017).
Where no end group is shown, it is not given here.

target: T1, I‐A^b MHC II molecules (Mus musculus, UniProt P14434+P14483); assay: I-A^b binding assay: inhibition of binding of a high-affinity radiolabeled peptide; conditions: competition with radiolabeled peptide ROIV (0.1–1 nM); purified I-A^b from LB27.4 B-cell lymphoma; room temperature, 2-day incubation; six concentrations; IC50 approximates Kd
T1 construct: endogenous in cells; host or cells: mouse B-cell lymphoma LB27.4
T1 sequence (P14434 24-256): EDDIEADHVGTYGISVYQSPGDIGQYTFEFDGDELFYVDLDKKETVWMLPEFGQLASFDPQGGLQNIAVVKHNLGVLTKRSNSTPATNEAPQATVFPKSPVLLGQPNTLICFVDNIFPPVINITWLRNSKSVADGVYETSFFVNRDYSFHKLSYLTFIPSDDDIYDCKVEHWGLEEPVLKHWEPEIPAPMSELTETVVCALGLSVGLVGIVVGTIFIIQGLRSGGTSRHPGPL
T1 sequence (P14483 28-265): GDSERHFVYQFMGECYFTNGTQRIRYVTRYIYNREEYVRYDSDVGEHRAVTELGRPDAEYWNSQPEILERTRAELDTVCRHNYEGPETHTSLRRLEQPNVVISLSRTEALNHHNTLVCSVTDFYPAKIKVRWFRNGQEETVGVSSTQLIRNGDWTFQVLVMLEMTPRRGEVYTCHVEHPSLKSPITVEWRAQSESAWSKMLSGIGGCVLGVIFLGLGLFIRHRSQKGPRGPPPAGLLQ
Protocol: We used mass spectrometry to globally characterize Pb antigenic peptides presented by MHC II on the surface of DC (Fig 1A). We immunoprecipitated the MHC II molecules from a splenic DC tumor cell line called MutuDC (Fuertes Marraco et al, 2012), incubated with Pb‐parasitized RBC (pRBC). Peptide‐loaded MHC II are trimers of I‐A^bα chain, I‐A^bβ chain, and antigenic peptide, which, depending on the affinity of the loaded peptide, can remain stable in SDS without prior boiling (Natarajan et al, 1999). To ensure that our protocol allowed the pull‐down of peptide‐MHC II trimers and not just of single I‐A^bβ chain, we compared the migration of eluates with and without prior boiling, confirming that the immunoprecipitated material was SDS‐stable (Fig 1B). Although genetically very close to PbA (Otto et al, 2014), several variants of Pb causing different pathophysiological outcomes have been described (de Souza et al, 2010). Pb K173 (PbK) being the most “distant” from PbA (although SNPs were found only in 469 of […]; Otto et al, 2014), we decided to perform this analysis both with PbA and PbK pRBC. This led to the identification of a total of 372 unique I‐A^b‐eluted peptides, comprising 330 mouse sequences and 42 Pb sequences (Fig 1C, Dataset EV1), derived from 13 putative Pb antigenic proteins (Dataset EV2). In line with the modest level of polymorphisms between PbA and PbK, none of those source antigens was polymorphic. Remarkably, for seven antigens, we recovered multiple peptides containing a core of 11–16 amino acids (aa) and various N‐ or C‐terminal extensions (Dataset EV2). This feature is a typical property of MHC II ligands (Bozzacco et al, 2011; Sofron et al, 2016). For each set of nested peptides, we further analyzed the longest spanning sequence comprising all recovered sequences, for example, NALYNYSIPRPNVTSNL for ETRAMP10.2 (PBANKA_0517000) or […] for LDH (PBANKA_1340100), resulting in a consolidated list of 14 peptides (Table 1). We evaluated the I‐A^b binding affinity of these 14 peptides by quantifying their ability to inhibit binding of a high‐affinity radiolabeled peptide (Sidney et al, 2013).
Purification of I‐A^b MHC II molecules by affinity chromatography and the assay based on the inhibition of binding of a high‐affinity radiolabeled peptide to quantitatively measure peptide binding were described elsewhere (Sidney et al, 2013). Briefly, the mouse B‐cell lymphoma LB27.4 was used as a source of MHC molecules. A high‐affinity radiolabeled peptide (0.1–1 nM; peptide ROIV, sequence YAHAAHAAHAAHAAHAA) was co‐incubated at room temperature with purified MHC in the presence of a cocktail of protease inhibitors and an inhibitor peptide. Following a 2‐day incubation, MHC‐bound radioactivity was determined by capturing MHC/peptide complexes on mAb (Y3JP)‐coated Lumitrac 600 plates (Greiner Bio‐one), and measuring bound cpm using the TopCount (Packard Instrument Co) microscintillation counter. The concentration of peptide yielding 50% inhibition of the binding of the radiolabeled peptide was calculated. Under the conditions utilized, where [label] < [MHC] and IC50 ≥ [MHC], the measured IC50 values are reasonable approximations of the true Kd values. Each competitor peptide was tested at six different concentrations covering a 100,000‐fold range. The “cold” probe was used as a positive control in each experiment.

Row | Sequence | IC50 [nM]
1 | APSEQTTTPEAATAASN [MSP1] | 1350
2 | DNEYDFSGKAALVYGQ [ATPSYN] | 104
3 | GGSTYIAAKVNEAKD [TIM14] | 302
4 | GINHEKYNSSQTIVSNAS [GAPDH.1] | 2420
5 | INDRNFIATTALSSTEE [AMA1] | 818
6 | KILYNSAKPNSDLH [END70] | 478
7 | LHASPYVAPAAAIIEMAE [LDH] | 110
8 | LIPEYNEAAIMLSEKK [PDI] | 166
9 | LMTTVHASTANQLVV [GAPDH.2] | 980
10 | LSEVVIHPETNYALTG [M1] | 15900
11 | NALYNYSIPRPNVTSNL [ETRAMP] | 87
12 | SGKVVEENPKAIKSGDS [EF1a] | 2700
13 | TEVPSLVPPTTNTSHAAPAH [MAHRP] | 872
14 | TTLGIFRAAVPSGASTG [ENO] | 115
